According to publication PMC3814616, “BRAF inhibitors suppress apoptosis through off-target inhibition of JNK signaling” (eLife, 2013):

Columns and labels:
[1] = tested on: E1A and HRAS^G12V-transformed Craf−/− MEFs; assay: Soft agar colony formation; type: cell-based, mouse; settings: 0.2 μM and 1.0 μM, 4–6 weeks
A375 melanoma cell line = settings: ref Tsai et al., 2008; cited from earlier work
Noxa mRNA = assay: qPCR of epidermis of irradiated mice; settings: oral gavage 40–80 mg/kg twice a day, 10 kJ/m^2 UVB
full length MAP4K5 = target: T1, full length MAP4K5 (Homo sapiens, UniProt Q9Y4K4); assay: In vitro kinase assay (Reaction Biology); type: biochemical
T1 construct: and full length MAP4K5 (MBP substrate, ATP 10 μM) (Reaction Biology); purchased Reaction Biology
T1 sequence (Q9Y4K4 whole entry): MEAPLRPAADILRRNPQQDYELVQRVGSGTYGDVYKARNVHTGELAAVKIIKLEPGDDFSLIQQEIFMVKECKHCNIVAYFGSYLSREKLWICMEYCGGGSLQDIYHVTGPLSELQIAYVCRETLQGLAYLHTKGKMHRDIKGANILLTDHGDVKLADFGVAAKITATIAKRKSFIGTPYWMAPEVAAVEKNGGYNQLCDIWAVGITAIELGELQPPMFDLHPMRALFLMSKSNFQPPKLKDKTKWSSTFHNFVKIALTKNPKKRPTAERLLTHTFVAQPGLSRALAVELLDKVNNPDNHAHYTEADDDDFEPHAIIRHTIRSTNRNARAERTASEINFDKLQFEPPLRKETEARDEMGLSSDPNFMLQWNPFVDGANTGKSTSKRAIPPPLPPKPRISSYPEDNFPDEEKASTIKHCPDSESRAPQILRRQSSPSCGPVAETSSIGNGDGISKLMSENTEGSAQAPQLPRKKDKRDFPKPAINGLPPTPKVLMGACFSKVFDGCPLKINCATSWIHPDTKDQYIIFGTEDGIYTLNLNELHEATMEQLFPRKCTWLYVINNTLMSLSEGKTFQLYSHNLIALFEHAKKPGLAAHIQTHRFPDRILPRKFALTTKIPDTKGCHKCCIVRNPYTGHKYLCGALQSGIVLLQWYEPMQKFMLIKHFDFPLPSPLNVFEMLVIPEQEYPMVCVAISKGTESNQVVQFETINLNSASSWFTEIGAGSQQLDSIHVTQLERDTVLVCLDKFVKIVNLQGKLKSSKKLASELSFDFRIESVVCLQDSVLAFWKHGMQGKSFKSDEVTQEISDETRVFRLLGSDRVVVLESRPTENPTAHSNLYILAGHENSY

ASK1 (MAP3K5) = target: T2, ASK1 (MAP3K5) (Homo sapiens, UniProt Q99683); design: method as in Bollag et al., 2010; settings: ref Bollag et al., 2010; read-out: Published biochemical IC50; cited from earlier work
T2 construct: purchased KINOMEscan (DiscoveRx), San Diego, CA
T2 sequence (Q99683 1-1374): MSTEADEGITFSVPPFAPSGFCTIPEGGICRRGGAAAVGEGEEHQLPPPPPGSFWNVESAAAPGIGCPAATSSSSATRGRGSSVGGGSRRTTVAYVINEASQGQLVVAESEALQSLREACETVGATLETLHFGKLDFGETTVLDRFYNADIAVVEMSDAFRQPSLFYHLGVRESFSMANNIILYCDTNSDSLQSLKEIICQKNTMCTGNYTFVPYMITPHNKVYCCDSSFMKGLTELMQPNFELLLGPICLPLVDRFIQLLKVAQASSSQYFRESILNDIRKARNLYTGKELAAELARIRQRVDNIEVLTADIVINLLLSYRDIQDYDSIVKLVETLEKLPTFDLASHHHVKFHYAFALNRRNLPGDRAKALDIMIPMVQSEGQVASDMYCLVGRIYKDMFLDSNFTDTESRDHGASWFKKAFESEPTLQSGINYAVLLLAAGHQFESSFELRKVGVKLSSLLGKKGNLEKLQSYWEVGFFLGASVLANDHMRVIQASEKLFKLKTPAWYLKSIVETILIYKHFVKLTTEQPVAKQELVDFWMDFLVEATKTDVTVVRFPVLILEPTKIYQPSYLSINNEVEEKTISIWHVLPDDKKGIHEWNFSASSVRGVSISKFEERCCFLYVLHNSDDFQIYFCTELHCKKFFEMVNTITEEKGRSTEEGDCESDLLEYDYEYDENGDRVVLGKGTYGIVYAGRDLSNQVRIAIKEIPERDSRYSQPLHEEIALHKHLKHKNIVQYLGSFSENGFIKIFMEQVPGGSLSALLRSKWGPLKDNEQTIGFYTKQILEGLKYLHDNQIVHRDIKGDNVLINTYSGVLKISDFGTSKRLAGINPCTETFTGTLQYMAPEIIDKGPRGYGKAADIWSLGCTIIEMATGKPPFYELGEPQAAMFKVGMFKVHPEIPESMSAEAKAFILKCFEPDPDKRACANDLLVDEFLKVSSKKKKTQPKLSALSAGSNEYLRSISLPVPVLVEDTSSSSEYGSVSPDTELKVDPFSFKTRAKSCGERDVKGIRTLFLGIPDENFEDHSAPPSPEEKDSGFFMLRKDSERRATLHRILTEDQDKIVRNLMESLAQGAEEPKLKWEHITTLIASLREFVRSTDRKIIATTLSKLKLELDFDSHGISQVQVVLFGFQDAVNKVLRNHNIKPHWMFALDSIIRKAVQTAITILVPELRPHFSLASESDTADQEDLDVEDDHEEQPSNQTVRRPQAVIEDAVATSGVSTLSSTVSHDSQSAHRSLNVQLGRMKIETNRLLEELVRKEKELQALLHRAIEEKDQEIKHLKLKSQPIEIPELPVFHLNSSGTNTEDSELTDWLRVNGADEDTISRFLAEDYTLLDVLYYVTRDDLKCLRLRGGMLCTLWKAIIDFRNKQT

BLK = target: T3, BLK (Homo sapiens, UniProt P51451); design: method as in Bollag et al., 2010; settings: ref Bollag et al., 2010; read-out: Published biochemical IC50; cited from earlier work
T3 construct: purchased KINOMEscan (DiscoveRx), San Diego, CA
T3 sequence (P51451 whole entry): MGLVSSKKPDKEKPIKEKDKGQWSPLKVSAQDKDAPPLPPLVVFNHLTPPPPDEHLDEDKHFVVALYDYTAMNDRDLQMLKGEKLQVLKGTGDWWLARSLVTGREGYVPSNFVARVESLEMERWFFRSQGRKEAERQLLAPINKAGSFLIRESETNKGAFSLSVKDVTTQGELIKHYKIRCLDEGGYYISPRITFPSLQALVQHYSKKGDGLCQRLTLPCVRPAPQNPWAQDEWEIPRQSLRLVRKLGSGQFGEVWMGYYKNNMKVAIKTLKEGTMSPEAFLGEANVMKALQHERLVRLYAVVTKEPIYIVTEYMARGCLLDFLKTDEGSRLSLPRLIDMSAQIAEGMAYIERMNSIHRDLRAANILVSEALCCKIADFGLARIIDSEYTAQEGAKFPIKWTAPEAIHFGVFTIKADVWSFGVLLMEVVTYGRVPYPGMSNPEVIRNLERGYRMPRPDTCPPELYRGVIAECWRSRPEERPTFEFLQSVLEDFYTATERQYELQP

MAP4K5 = target: T4, MAP4K5 (Homo sapiens, UniProt Q9Y4K4); design: method as in Bollag et al., 2010; settings: ref Bollag et al., 2010; read-out: Published biochemical IC50; cited from earlier work
T4 construct: purchased KINOMEscan (DiscoveRx), San Diego, CA
T4 sequence (Q9Y4K4 whole entry): as the sequence (Q9Y4K4 whole entry) above

SMILES | colony formation [1] | GI50 (A375 melanoma cell line) | UV-induced Noxa mRNA expression (Noxa mRNA) | IC50 (full length MAP4K5; MBP substrate, ATP 10 μM, read-out: biochemical IC50) | remaining activity at 1 µM (full length MAP4K5; at 1 μM, read-out: residual activity) | IC50 (ASK1 (MAP3K5)) | IC50 (BLK) | IC50 (MAP4K5)
CCCS(=O)(=O)Nc1ccc(F)c(C(=O)c2c[nH]c3ncc(Cl)cc23)c1F [PLX4720] | significant colony formation advantage | 500 nM | significantly dampened | – | – | – | – | –
CCCS(=O)(=O)Nc1ccc(F)c(C(=O)c2c[nH]c3ncc(-c4ccc(Cl)cc4)cc23)c1F [vemurafenib] | – | – | – | 354 ± 26 nM | 25.7 ± 0.6% | > 1000 nM | 547 nM | 51 nM
